Laboratory results: ChEMBL document CHEMBL1148585, “Classification of chemical compounds by protein-compound docking for use in designing a focused library” (J Med Chem, 2006)

Target: T1, Macrophage migration inhibitory factor (Homo sapiens, UniProt P14174)
T1 sequence (P14174 whole entry): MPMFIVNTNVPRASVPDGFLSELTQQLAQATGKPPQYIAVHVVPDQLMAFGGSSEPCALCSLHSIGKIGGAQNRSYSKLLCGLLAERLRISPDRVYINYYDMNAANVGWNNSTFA
Assay: Inhibition of MIF

SMILES | IC50
O=C(c1cnc(CCCC2CCCCC2)o1)N1CCN(Cc2ccccc2)CC1 | 30 µM
CC(C)C(=O)Nc1cc2c(cc1CCc1cccc3ccccc13)C(C(=O)O)CC2c1cccs1 (stereo not given) | 8 µM
O=C(O)CC(c1ccc(Cl)cc1)(c1ccc(Cl)cc1)c1ccc(Cl)cc1 | 8.1 µM

Stronger by IC50, values ahead:

IC50 | SMILES
3.4 µM | O=C(O)C1Nc2ccc(Br)cc2C2C=CCC12 (stereo not given)
0.4 µM | Oc1ccc(CSc2ccncc2)cc1O
